± gives the expanded uncertainty stated by the source.
Assay: molar heat capacity at constant volume
Conditions: Fluid (supercritical or subcritical phases), Vacuum adiabatic calorimetry

CCC(C)O (stereo unspecified) [butan-2-ol]
molar heat capacity at constant volume (513.55 K, Mass density=474.07 kg/m3): 293.52 ± 3 J/K/mol
molar heat capacity at constant volume (513.74 K, Mass density=95.93 kg/m3): 641.3 ± 8.3 J/K/mol
molar heat capacity at constant volume (513.74 K, Mass density=474.07 kg/m3): 293.52 ± 3 J/K/mol
molar heat capacity at constant volume (513.92 K, Mass density=95.93 kg/m3): 638.11 ± 8.2 J/K/mol
molar heat capacity at constant volume (513.92 K, Mass density=474.07 kg/m3): 295 ± 3 J/K/mol
molar heat capacity at constant volume (514.11 K, Mass density=95.93 kg/m3): 635.74 ± 8.3 J/K/mol
molar heat capacity at constant volume (514.11 K, Mass density=474.07 kg/m3): 289.82 ± 3 J/K/mol
molar heat capacity at constant volume (514.3 K, Mass density=95.93 kg/m3): 627.59 ± 8.1 J/K/mol
molar heat capacity at constant volume (514.3 K, Mass density=474.07 kg/m3): 283.14 ± 3 J/K/mol
molar heat capacity at constant volume (514.48 K, Mass density=95.93 kg/m3): 308.72 ± 5.9 J/K/mol
molar heat capacity at constant volume (514.48 K, Mass density=474.07 kg/m3): 295.75 ± 3 J/K/mol
molar heat capacity at constant volume (514.67 K, Mass density=95.93 kg/m3): 252.53 ± 5.5 J/K/mol
molar heat capacity at constant volume (514.67 K, Mass density=474.07 kg/m3): 285.37 ± 3 J/K/mol
molar heat capacity at constant volume (514.86 K, Mass density=95.93 kg/m3): 246.31 ± 5.6 J/K/mol
molar heat capacity at constant volume (514.86 K, Mass density=474.07 kg/m3): 291.3 ± 3 J/K/mol
molar heat capacity at constant volume (515.04 K, Mass density=95.93 kg/m3): 265.58 ± 6.4 J/K/mol
molar heat capacity at constant volume (515.04 K, Mass density=474.07 kg/m3): 286.85 ± 3 J/K/mol
molar heat capacity at constant volume (515.23 K, Mass density=95.93 kg/m3): 271.43 ± 3 J/K/mol
molar heat capacity at constant volume (515.23 K, Mass density=474.07 kg/m3): 240.9 ± 2.2 J/K/mol
molar heat capacity at constant volume (515.42 K, Mass density=95.93 kg/m3): 276.47 ± 2.9 J/K/mol
molar heat capacity at constant volume (515.42 K, Mass density=474.07 kg/m3): 230.52 ± 2.2 J/K/mol
molar heat capacity at constant volume (515.6 K, Mass density=474.07 kg/m3): 230.52 ± 2.2 J/K/mol
molar heat capacity at constant volume (515.79 K, Mass density=95.93 kg/m3): 198.72 ± 2.1 J/K/mol
molar heat capacity at constant volume (515.79 K, Mass density=474.07 kg/m3): 229.04 ± 2.2 J/K/mol
molar heat capacity at constant volume (515.98 K, Mass density=95.93 kg/m3): 206.28 ± 2.1 J/K/mol
molar heat capacity at constant volume (515.98 K, Mass density=474.07 kg/m3): 232.74 ± 2.2 J/K/mol
molar heat capacity at constant volume (516.16 K, Mass density=95.93 kg/m3): 200.65 ± 2.1 J/K/mol
molar heat capacity at constant volume (516.35 K, Mass density=95.93 kg/m3): 215.69 ± 2.4 J/K/mol
molar heat capacity at constant volume (516.53 K, Mass density=95.93 kg/m3): 229.41 ± 2.4 J/K/mol
molar heat capacity at constant volume (516.53 K, Mass density=403.55 kg/m3): 311.31 ± 3 J/K/mol
molar heat capacity at constant volume (516.53 K, Mass density=474.07 kg/m3): 220.14 ± 2.2 J/K/mol
molar heat capacity at constant volume (516.72 K, Mass density=95.93 kg/m3): 228.07 ± 2.3 J/K/mol
molar heat capacity at constant volume (516.72 K, Mass density=403.55 kg/m3): 309.83 ± 3 J/K/mol
molar heat capacity at constant volume (516.72 K, Mass density=474.07 kg/m3): 223.11 ± 2.2 J/K/mol
molar heat capacity at constant volume (516.91 K, Mass density=95.93 kg/m3): 243.71 ± 2.5 J/K/mol
molar heat capacity at constant volume (516.91 K, Mass density=403.55 kg/m3): 312.79 ± 3 J/K/mol
molar heat capacity at constant volume (516.91 K, Mass density=474.07 kg/m3): 221.62 ± 2.2 J/K/mol
molar heat capacity at constant volume (516.91 K, Mass density=538.17 kg/m3): 212.88 ± 2.1 J/K/mol
molar heat capacity at constant volume (517.09 K, Mass density=95.93 kg/m3): 203.61 ± 2.1 J/K/mol
molar heat capacity at constant volume (517.09 K, Mass density=403.55 kg/m3): 309.09 ± 3 J/K/mol
molar heat capacity at constant volume (517.09 K, Mass density=474.07 kg/m3): 222.36 ± 2.2 J/K/mol
molar heat capacity at constant volume (517.09 K, Mass density=538.17 kg/m3): 213.84 ± 2.1 J/K/mol
molar heat capacity at constant volume (517.28 K, Mass density=95.93 kg/m3): 224.96 ± 2.3 J/K/mol
molar heat capacity at constant volume (517.28 K, Mass density=403.55 kg/m3): 310.57 ± 3 J/K/mol
molar heat capacity at constant volume (517.28 K, Mass density=538.17 kg/m3): 214.06 ± 2.1 J/K/mol
molar heat capacity at constant volume (517.47 K, Mass density=403.55 kg/m3): 313.53 ± 3 J/K/mol
molar heat capacity at constant volume (517.65 K, Mass density=403.55 kg/m3): 309.09 ± 3 J/K/mol
molar heat capacity at constant volume (520.44 K, Mass density=117 kg/m3): 740.77 ± 7.4 J/K/mol
molar heat capacity at constant volume (520.63 K, Mass density=117 kg/m3): 732.54 ± 7.3 J/K/mol
molar heat capacity at constant volume (520.81 K, Mass density=117 kg/m3): 737.95 ± 7.4 J/K/mol
molar heat capacity at constant volume (521 K, Mass density=117 kg/m3): 726.1 ± 7.3 J/K/mol
molar heat capacity at constant volume (521.18 K, Mass density=117 kg/m3): 734.77 ± 7.4 J/K/mol
molar heat capacity at constant volume (521.37 K, Mass density=117 kg/m3): 723.58 ± 7.5 J/K/mol
molar heat capacity at constant volume (521.55 K, Mass density=117 kg/m3): 728.69 ± 9.4 J/K/mol
molar heat capacity at constant volume (521.74 K, Mass density=117 kg/m3): 715.2 ± 9.9 J/K/mol
molar heat capacity at constant volume (521.74 K, Mass density=142.27 kg/m3): 509.66 ± 5.2 J/K/mol
molar heat capacity at constant volume (521.92 K, Mass density=117 kg/m3): 709.42 ± 9.7 J/K/mol
molar heat capacity at constant volume (521.92 K, Mass density=142.27 kg/m3): 517.74 ± 5.2 J/K/mol
molar heat capacity at constant volume (522.11 K, Mass density=117 kg/m3): 639 ± 9.1 J/K/mol
molar heat capacity at constant volume (522.11 K, Mass density=142.27 kg/m3): 522.71 ± 5.3 J/K/mol
molar heat capacity at constant volume (522.13 K, Mass density=117 kg/m3): 606.09 ± 8.8 J/K/mol
molar heat capacity at constant volume (522.15 K, Mass density=117 kg/m3): 603.42 ± 8.4 J/K/mol
molar heat capacity at constant volume (522.16 K, Mass density=117 kg/m3): 599.35 ± 8.4 J/K/mol
molar heat capacity at constant volume (522.18 K, Mass density=117 kg/m3): 590.9 ± 8.3 J/K/mol
molar heat capacity at constant volume (522.2 K, Mass density=117 kg/m3): 590.9 ± 8.3 J/K/mol
molar heat capacity at constant volume (522.22 K, Mass density=117 kg/m3): 505.14 ± 7.7 J/K/mol
molar heat capacity at constant volume (522.24 K, Mass density=117 kg/m3): 408.41 ± 7.1 J/K/mol
molar heat capacity at constant volume (522.26 K, Mass density=117 kg/m3): 318.13 ± 6.7 J/K/mol
molar heat capacity at constant volume (522.28 K, Mass density=117 kg/m3): 304.49 ± 7.2 J/K/mol
molar heat capacity at constant volume (522.3 K, Mass density=117 kg/m3): 309.61 ± 7.3 J/K/mol
molar heat capacity at constant volume (522.3 K, Mass density=142.27 kg/m3): 521.45 ± 5.3 J/K/mol
molar heat capacity at constant volume (522.31 K, Mass density=117 kg/m3): 308.86 ± 7.3 J/K/mol
molar heat capacity at constant volume (522.33 K, Mass density=117 kg/m3): 298.12 ± 6.7 J/K/mol
molar heat capacity at constant volume (522.35 K, Mass density=117 kg/m3): 289.44 ± 6.7 J/K/mol
molar heat capacity at constant volume (522.37 K, Mass density=117 kg/m3): 280.77 ± 6.7 J/K/mol
molar heat capacity at constant volume (522.39 K, Mass density=117 kg/m3): 260.54 ± 6.6 J/K/mol
molar heat capacity at constant volume (522.4 K, Mass density=117 kg/m3): 247.05 ± 6.6 J/K/mol
molar heat capacity at constant volume (522.42 K, Mass density=117 kg/m3): 241.56 ± 6.6 J/K/mol
molar heat capacity at constant volume (522.44 K, Mass density=117 kg/m3): 241.56 ± 6.6 J/K/mol
molar heat capacity at constant volume (522.46 K, Mass density=117 kg/m3): 222.29 ± 7 J/K/mol
molar heat capacity at constant volume (522.48 K, Mass density=117 kg/m3): 221.62 ± 7 J/K/mol
molar heat capacity at constant volume (522.48 K, Mass density=142.27 kg/m3): 530.71 ± 5.3 J/K/mol
molar heat capacity at constant volume (522.67 K, Mass density=117 kg/m3): 241.78 ± 7.1 J/K/mol
molar heat capacity at constant volume (522.67 K, Mass density=142.27 kg/m3): 535.45 ± 5.4 J/K/mol
molar heat capacity at constant volume (522.85 K, Mass density=117 kg/m3): 245.27 ± 7.2 J/K/mol
molar heat capacity at constant volume (522.85 K, Mass density=142.27 kg/m3): 540.12 ± 5.4 J/K/mol
molar heat capacity at constant volume (523.04 K, Mass density=117 kg/m3): 242.75 ± 4.2 J/K/mol
molar heat capacity at constant volume (523.04 K, Mass density=142.27 kg/m3): 544.87 ± 5.5 J/K/mol
molar heat capacity at constant volume (523.22 K, Mass density=117 kg/m3): 224.14 ± 2.3 J/K/mol
molar heat capacity at constant volume (523.22 K, Mass density=142.27 kg/m3): 528.41 ± 5.3 J/K/mol
molar heat capacity at constant volume (523.41 K, Mass density=117 kg/m3): 213.62 ± 2.3 J/K/mol
molar heat capacity at constant volume (523.41 K, Mass density=142.27 kg/m3): 530.64 ± 5.3 J/K/mol
molar heat capacity at constant volume (523.59 K, Mass density=142.27 kg/m3): 531.67 ± 5.3 J/K/mol
molar heat capacity at constant volume (523.78 K, Mass density=142.27 kg/m3): 532.34 ± 5.3 J/K/mol
molar heat capacity at constant volume (524.33 K, Mass density=142.27 kg/m3): 531.23 ± 5.3 J/K/mol
molar heat capacity at constant volume (524.52 K, Mass density=142.27 kg/m3): 529.97 ± 5.3 J/K/mol
molar heat capacity at constant volume (524.7 K, Mass density=142.27 kg/m3): 534.05 ± 5.3 J/K/mol
molar heat capacity at constant volume (524.89 K, Mass density=142.27 kg/m3): 531.45 ± 5.3 J/K/mol
molar heat capacity at constant volume (525.07 K, Mass density=142.27 kg/m3): 529.6 ± 5.3 J/K/mol
molar heat capacity at constant volume (525.26 K, Mass density=142.27 kg/m3): 530.41 ± 5.3 J/K/mol
molar heat capacity at constant volume (525.44 K, Mass density=142.27 kg/m3): 530.93 ± 5.3 J/K/mol
molar heat capacity at constant volume (525.63 K, Mass density=142.27 kg/m3): 531.82 ± 5.3 J/K/mol
molar heat capacity at constant volume (525.81 K, Mass density=142.27 kg/m3): 537.01 ± 5.4 J/K/mol
molar heat capacity at constant volume (525.99 K, Mass density=142.27 kg/m3): 538.94 ± 5.8 J/K/mol
molar heat capacity at constant volume (527.1 K, Mass density=142.27 kg/m3): 532.93 ± 5.7 J/K/mol
molar heat capacity at constant volume (527.29 K, Mass density=142.27 kg/m3): 536.64 ± 5.6 J/K/mol
